From publication PMC7466001 (Molecules, 2020)
Several values for one entry are separate records, joined by “and”; a condition that tells them apart may be missing. Equal entries are not always repeated. Where two headings read alike, the source gives them in different places.

Experiments:
[1] = test system: hNK1R; design: method as in PMID 19426690; settings: cells expressing hNK1R; cited from earlier work
[2] = molecular target: human neurokinin 1 receptor; design: method as in PMID 9804700; settings: human receptor binding; cited from earlier work
[3] = design: method as in PMID 15488686; settings: aprepitant; cited from earlier work
[4] = molecular target: T1, rat neurokinin 1 receptor (Rattus norvegicus, UniProt P14600); assay: Competitive radioligand binding assay using rat brain homogenates, [3H]-[Sar9,Met(O2)11]-Substance P; settings: for Ratio to APT: IC50 ratio to aprepitant, rat NK1R
T1 construct: from tissue; host or cells: rat brain (membrane preparation / homogenate)
Source text: An important consideration in the search of conjugate vectors for radionuclides is whether the functionalization of a high affinity ligand would not reduce the binding strength for a desired receptor. For the preliminary addressing of this issue in the case of our conjugates, we measured the affinity of compounds 5A–E (uncomplexed precursors) for the rat neurokinin-1 receptor. The human (hNK1R) and the rat (rNK1R) neurokinin 1 receptors differ in their sequences and pharmacology.
In brief, the membrane preparations obtained from rat brains were incubated at 25 °C for 60 min in the presence of a selective radioligand [^3H]-[Sar^9,Met(O2)^11]-Substance P obtained from PerkinElmer, (Waltham, MA, USA) and the increasing concentrations of the tested compounds (each concentration in duplicate). Non-specific binding was measured in the presence of 10 μM cold Substance P. The assay buffer was composed of 50 mM Tris-HCl (pH 7.4), 5 mM MnCl2, bovine serum albumin (BSA) (0.1 mg/mL), bacitracin (100 μg/mL), bestatin (30 μM), phenylmethylsulfonyl fluoride (30 μg/mL), and captopril (10 μM). The reaction total volume was 1 mL. With the incubation having been terminated, a rapid filtration through GF/B Whatman glass fiber strips was done with a M-24 Cell Harvester (Brandel, Gaithersburg, MD, USA). The filters were pre-soaked overnight with 0.5% polyethyleneimine so that the extent of non-specific binding could be minimized. After the filtration, the strips were dried, the filter discs were placed separately in 24-well plates, and a Betaplate Scint scintillation solution (PerkinElmer, Waltham, MA, USA) was added to each well. Radioactivity was measured with a MicroBeta LS scintillation counter, Trilux (PerkinElmer, Waltham, MA, USA). The data came from three independent experiments done in duplicate. The results are presented as IC50 with SEM.

[5] = test system: rNK1R; design: method as in PMID 19426690; settings: cells expressing rNK1R; cited from earlier work
[6] = Lipophilicity study, distribution in n-octanol/PBS (pH 7.40); type: physicochemical; settings: n-octanol/PBS buffer pH 7.4
Source text: In the course of the lipophilicity study, each isolated DOTA radioconjugate (determined as fully stable in HS) was examined for distribution in the system of n-octanol and a phosphate-buffered saline (PBS) buffer (pH = 7.4) to estimate the lipophilicity of the radiocomplex. The lipophilicity of each radioconjugate (logD), defined as the logarithm of the distribution coefficient (D) is based on the ratio of the radioactivity of the organic phase to the radioactivity of the aqueous phase. The stability of the studied radioconjugate was verified simultaneously during the experiment through the HPLC analysis of the aqueous phase. LogD values of [^68Ga]Ga-5A–[^68Ga]Ga-5E and [^177Lu]Lu-5A–[^177Lu]Lu-5E are listed below in Table 3.
The lipophilicity values of the radioconjugates (logD), expressed as the logarithm of its D in the n-octanol/PBS (pH 7.40) system, mimicking the physiological conditions (Product Properties Test Guidelines of the Office of Prevention, Pesticides and Toxic Substances 830.7550, 1996), were determined right after the SPE method purification and ethanol evaporation processes. A solution of isolated selected radioconjugate in 500 µL of a 0.1 M PBS buffer at pH 7.40 and 500 µL of n-octanol was vigorously stirred and centrifuged (13,500 rpm for 5 min) to separate the immiscible phases. The radioactivities of the aqueous and organic layers were determined using a well-type NaI(Tl) detector. The distribution coefficient was calculated as the ratio of the radioactivity of the radioconjugate in the organic phase to that in the aqueous phase. Each measurement was performed in triplicate and averaged. Simultaneously, the aqueous phases were analyzed by HPLC to check whether the studied radioconjugate remained intact during the experiment.

[7] = type: physicochemical
Experimental: All APT conjugates with DOTA, Bn-DOTA, and Bn-DOTAGA were radiolabeled with ^68Ga and ^177Lu, while APT conjugates with DTPA were only radiolabeled with ^68Ga. Synthesized radioconjugates were purified using the solid phase extraction (SPE) method before HPLC identification (Figure 2 and Figure 3) and further analyses.
Moreover, in the radiochromatogram of [^177Lu]Lu-DOTA-Bn-Et-APT ([^177Lu]Lu-6A) one can see a small additional signal (about 19.3 min) that is recognized as an early by-product of an interaction with solvent (EtOH) from the purification process. To verify the identity of all synthesized [^68Ga]Ga-radioconjugates in a non-carrier added scale, the non-radioactive stable gallium reference compounds (Ga-5A–Ga-9A and Ga-5A–Ga-5E) were synthesized and characterized by mass spectrometry. […]
The ^68Ga radiolabeling of the DOTA, Bn-DOTA, and Bn-DOTAGA conjugates of APT was performed according to the following procedure: 145 µL of a concentrated solution of [^68Ga]GaCl3 in 0.1 M HCl from the ^68Ge/^68Ga generator (4.9 ÷ 7.2 MBq) was added into the solution of 25 nmol of the selected conjugate in 200 µL of a 0.2 M acetate buffer (pH = 4.5) and heated for 5–10 min at 95 °C. […] The effectiveness of the purification was monitored by HPLC. […]

[8] = uncomplexed precursors, rat brain homogenates, three independent experiments in duplicate, read-out: IC50 ± SEM

T1 sequence (P14600 whole entry): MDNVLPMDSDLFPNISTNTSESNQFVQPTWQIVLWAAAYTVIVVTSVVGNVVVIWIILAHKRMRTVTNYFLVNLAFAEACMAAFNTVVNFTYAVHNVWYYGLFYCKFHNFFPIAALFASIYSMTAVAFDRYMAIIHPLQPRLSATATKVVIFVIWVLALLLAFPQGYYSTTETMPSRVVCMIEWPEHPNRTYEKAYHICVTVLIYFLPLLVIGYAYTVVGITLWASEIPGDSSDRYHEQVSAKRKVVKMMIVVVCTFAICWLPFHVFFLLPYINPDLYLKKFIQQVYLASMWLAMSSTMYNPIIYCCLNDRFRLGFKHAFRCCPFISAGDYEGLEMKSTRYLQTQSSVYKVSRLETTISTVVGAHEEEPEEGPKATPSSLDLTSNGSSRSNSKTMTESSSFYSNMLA

Compound	Ratio to APT [4]	IC50 [4, 8]	pKB [1]	IC50 [2]	logD [3]	IC50 ([4]; IC50, rat brain homogenates)	IC50 ([4]; IC50 ± SEM, uncomplexed precursors, rat brain homogenates, three independent experiments in duplicate)	pKB [5]	logD ([6]; 68Ga-radiolabeled conjugate)	logD ([6]; 177Lu-radiolabeled conjugate)	stability of the radioconjugate after radiosynthesis [7]
C[C@@H](O[C@H]1OCCN(Cc2n[nH]c(=O)[nH]2)[C@H]1c1ccc(F)cc1)c1cc(C(F)(F)F)cc(C(F)(F)F)c1 [Aprepitant, aprepitant]	1.0		8.7	0.09 nM	4.8	128 nM	130 ± 60 nM	7.3			
APT-Et-DOTA [5A]	48.2	6200 ± 2600 nM							0.141 ± 0.019	0.708 ± 0.021	
[^68Ga]Ga-DTPA-(Et-APT)2 [[^68Ga]Ga-9A]											immediately unstable

Continued, in another order:

Ratio to APT [4]	IC50 [4, 8]	Compound	pKB [1]	IC50 [2]	logD [3]	IC50 ([4]; IC50, rat brain homogenates)	IC50 ([4]; IC50 ± SEM, uncomplexed precursors, rat brain homogenates, three independent experiments in duplicate)	pKB [5]	logD ([6]; 68Ga-radiolabeled conjugate)	logD ([6]; 177Lu-radiolabeled conjugate)	stability of the radioconjugate after radiosynthesis [7]
19.7	~2500 nM and 2500 nM	APT-Ac-Et-DOTA [5E]							−0.231 ± 0.015	0.500 ± 0.017	
19.1	~2500 nM and 2500 nM	APT-Ac-HN-NH-DOTA [5D]							−1.012 ± 0.017	−0.401 ± 0.015	
14.3	1800 ± 700 nM	APT-Bu-DOTA [5C]							0.290 ± 0.018	0.777 ± 0.021	
5.3	690 ± 70 nM	APT-Pr-DOTA [5B]							0.058 ± 0.016	0.654 ± 0.022	
